Values quoted from earlier work, collected in patent publication US11629364B2, “Methods for synthesizing anticoagulant polysaccharides” (OPTIMVIA, LLC, priority 2019, dated 2023).

Details: pH 8.0

Nc1ncnc2c1ncn2[C@@H]1O[C@H](COP(=O)(O)OS(=O)(=O)O)[C@@H](OP(=O)(O)O)[C@H]1O [PAPS, 3′-phosphoadenosine 5′-phosphosulfate]
half-life of PAPS: about 20 hours
